In PMC7537607 (Computational Biology and Chemistry, 2020):
In brackets after ≈: the same amount, converted by molar mass. Several values for one entry are separate records, joined by “and”; a condition that tells them apart may be missing. Equal entries are not always repeated. Where two headings read alike, the source gives them in different places.

Assays:
[1] = tested on: Punta Toro virus; assay: microbe, parasite or virus in culture; format: cell-based; conditions: Vero, read-out: EC50 Punta Toro virus
[2] = tested on: Reovirus-1; assay: organism not typed; format: cell-based; conditions: for EC50: Vero, read-out: EC50 Reovirus-1
[3] = tested on: Sindbis virus; assay: microbe, parasite or virus in culture; format: cell-based; conditions: Vero, read-out: EC50 Sindbis virus
[4] = in vitro; conditions: human; for viability: 48 h
[5] = tested on: Vero cells
[6] = tested on: Coxsackie virus B4; assay: microbe, parasite or virus in culture; format: cell-based; conditions: Enterovirus B, B4, Vero, read-out: EC50 Coxsackie virus B4
[7] = tested on: Yellow Fever virus; assay: microbe, parasite or virus in culture; format: cell-based; conditions: for EC50: Yellow fever virus, Vero, read-out: EC50 Yellow Fever virus
[8] = tested on: Para-influenza-3 virus; assay: organism not typed; format: cell-based; conditions: for EC50: Vero, read-out: EC50 Para-influenza-3 virus
[9] = tested on: HIV-1 (strain NL4.3); assay: microbe, parasite or virus in culture; format: cell-based
[10] = Cytotoxicity % Viability Exp - 1, 10 μg/mL
[11] = Cytotoxicity % Viability Exp - 1, 100 μg/mL

For `OCCn1c(Cl)nc2ccccc21` [Compound 1a, 2-(2-Chloro-1H-benzimidazol-1-yl)ethan-1-ol], the EC50 [1] was over 100 µg/mL, the EC50 [2] was over 100 µg/mL and the EC50 [3] was over 100 µg/mL. The viability [4, 10] was 90.1%, the viability [4, 11] was 53.6% and the “Minimum cytotoxic concentration (MCC)” value ([5]; African green monkey) was over 100 µg/mL. For the same molecule, the EC50 [6] was over 100 µg/mL, the “SI (Yellow Fever Virus), ratio of MCC to EC50” value (“SI (Yellow Fever Virus), ratio” for short) [7] was 1 and the EC50 [7] was over 100 µg/mL. It also gave an EC50 [8] of over 100 µg/mL.
`OCCCn1c(Cl)nc2ccccc21` [Compound 1b, 3-(2-Chloro-1H-benzimidazol-1-yl)propan-1-ol] gave an EC50 [1] of over 100 µg/mL, an EC50 [2] of over 100 µg/mL and an EC50 [3] of over 100 µg/mL. For the same molecule, the viability [4, 10] was 92.6%, the viability [4, 11] was 58.6% and the “Minimum cytotoxic concentration (MCC)” value ([5]; African green monkey) was over 100 µg/mL. For the same molecule, the EC50 [6] was over 100 µg/mL, the “SI (Yellow Fever Virus), ratio” value [7] was 1 and the EC50 [7] was over 100 µg/mL. The EC50 [8] was over 100 µg/mL.
With `O=[N+]([O-])c1ccc2c(c1)nc(Cl)n2CCO` [Compound 2a, 2-(2-Chloro-5-nitro-1H-benzimidazol-1-yl)ethan-1-ol] the EC50 [1] was over 100 µg/mL, the EC50 [2] was over 100 µg/mL and the EC50 [3] was over 100 µg/mL. For the same molecule, the viability [4, 10] was 104%, the viability [4, 11] was 40.4% and the “Minimum cytotoxic concentration (MCC)” value ([5]; African green monkey) was at least 100 µg/mL. For the same molecule, the EC50 [6] was over 100 µg/mL, the “SI (Yellow Fever Virus), ratio” value [7] was 1 and the EC50 [7] was over 100 µg/mL. For the same molecule, the EC50 [8] was over 100 µg/mL.
Work on `O=[N+]([O-])c1ccc2c(c1)nc(Cl)n2CCCO` [Compound 2b, 3-(2-Chloro-5-nitro-1H-benzimidazol-1-yl)propan-1-ol] yielded an EC50 [1] of over 100 µg/mL, an EC50 [2] of over 100 µg/mL and an EC50 [3] of over 100 µg/mL. The viability [4, 10] was 91.2%, the viability [4, 11] was 69.1% and the EC50 [6] was over 100 µg/mL. For the same molecule, the EC50 [8] was over 100 µg/mL.
In the case of `OCCn1c(Cl)nc2cc(Br)c(Br)cc21` [Compound 3a, 2-(5,6-Dibromo-2-chloro-1H-benzimidazol-1-yl)ethan-1-ol], the EC50 [1] is reported as over 100 µg/mL, the EC50 [2] is reported as over 100 µg/mL and the EC50 [3] is reported as over 100 µg/mL. The CC50 [4] was 3.74 µg/mL and 10.5 µM, the viability [4, 10] was 18.5% and the viability [4, 11] was 0.96%. The viability ([4]; Cytotoxicity % Viability Exp - 2, 1 μg/mL) was 83.7%, the viability ([4]; Cytotoxicity % Viability Exp - 2, 5 μg/mL) was 49% and the viability ([4]; Cytotoxicity % Viability Exp - 2, 10 μg/mL) was 13.7%. For the same molecule, the “Minimum cytotoxic concentration (MCC)” value ([5]; African green monkey) was 100 µg/mL, the EC50 [6] was over 100 µg/mL and the “SI (Selectivity index ratio CC50/IC50)” value [9] was 2.73. For the same molecule, the IC50 ([9]; Human immunodeficiency virus 1, TZM-bl, read-out: IC50 (HIV infection)) was 1.37 µg/mL (≈ 3.87 µM), the “SI (Yellow Fever Virus), ratio” value [7] was 1 and the EC50 [7] was over 100 µg/mL. For the same molecule, the EC50 [8] was over 100 µg/mL.
With `OCCCn1c(Cl)nc2cc(Br)c(Br)cc21` [Compound 3b, 3-(5,6-Dibromo-2-chloro-1H-benzimidazol-1-yl)propan-1-ol] the EC50 [1] was over 100 µg/mL, the EC50 [2] was over 100 µg/mL and the EC50 [3] was over 100 µg/mL. For the same molecule, the viability [4, 10] was 102%, the viability [4, 11] was 79.8% and the “Minimum cytotoxic concentration (MCC)” value ([5]; African green monkey) was over 100 µg/mL. For the same molecule, the EC50 [6] was over 100 µg/mL, the “SI (Yellow Fever Virus), ratio” value [7] was 1 and the EC50 [7] was over 100 µg/mL. It also gave an EC50 [8] of over 100 µg/mL.
In the case of `O=[N+]([O-])c1cc2nc(Cl)n(CCO)c2cc1[N+](=O)[O-]` [Compound 4a, 2-(2-Chloro-5,6-dinitro-1H-benzimidazol-1-yl)ethan-1-ol], the EC50 [1] is reported as over 100 µg/mL, the EC50 [2] is reported as over 100 µg/mL and the EC50 [3] is reported as over 100 µg/mL. The viability [4, 10] was 99.9%, the viability [4, 11] was 11.2% and the “Minimum cytotoxic concentration (MCC)” value ([5]; African green monkey) was over 100 µg/mL. For the same molecule, the EC50 [6] was over 100 µg/mL, the “SI (Yellow Fever Virus), ratio” value [7] was 1 and the EC50 [7] was over 100 µg/mL. The EC50 [8] was over 100 µg/mL.
Work on `O=[N+]([O-])c1cc2nc(Cl)n(CCCO)c2cc1[N+](=O)[O-]` [Compound 4b, 3-(2-Chloro-5,6-dinitro-1H-benzimidazol-1-yl)propan-1-ol] yielded an EC50 [1] of over 100 µg/mL, an EC50 [2] of over 100 µg/mL and an EC50 [3] of over 100 µg/mL. For the same molecule, the viability [4, 10] was 92.1%, the viability [4, 11] was 90.9% and the “Minimum cytotoxic concentration (MCC)” value ([5]; African green monkey) was at least 100 µg/mL. The EC50 [6] was over 100 µg/mL, the “SI (Yellow Fever Virus), ratio” value [7] was 1 and the EC50 [7] was over 100 µg/mL. It also gave an EC50 [8] of over 100 µg/mL.
`COc1c(C)c2c(c(O)c1C/C=C(\C)CCC(=O)O)C(=O)OC2` [Mycophenolic acid, reference compound] gave an EC50 [1] of 14 µM, an EC50 [2] of 6 µM and an EC50 [3] of 8.9 µM. The EC50 [6] was over 100 µM, the “SI (Yellow Fever Virus), ratio” value [7] was 125 and the EC50 [7] was 0.8 µM. It also gave an EC50 [8] of 0.6 µM.
With `Cc1ccnc2c1NC(=O)c1cccnc1N2C1CC1` [Nevirapine, reference compound] the “SI (Selectivity index ratio CC50/IC50)” value [9] was over 200.
`NC(=O)c1ncn([C@@H]2O[C@H](CO)[C@@H](O)[C@H]2O)n1` [Ribavirin, reference compound] showed an EC50 [1] of over 250 µM, an EC50 [2] of over 250 µM and an EC50 [3] of over 250 µM. For the same molecule, the EC50 [6] was over 250 µM, the “SI (Yellow Fever Virus), ratio” value [7] was 1 and the EC50 [7] was over 250 µM. For the same molecule, the EC50 [8] was 250 µM.
For “dextran sulfate [DS - 10.000, reference compound]”, the “EC50 Reovirus-1” value [2] was over 100 µg/mL, the “Minimum cytotoxic concentration (MCC)” value [5] was >100 (0.01μM) μg/mL and the “Minimum cytotoxic concentration (MCC), molar value in parentheses” value [5] was >100 (0.01μM). The “SI (Yellow Fever Virus), ratio” value [7] was 125 and the “EC50 Para-influenza-3 virus” value [8] was over 100 µg/mL.
